# Test results: patent publication US20260174749A1, “COMBINATION THERAPY WITH SUBSTITUTED 3-((3-AMINOPHENYL)AMINO)PIPERIDINE-2,6- DIONE COMPOUNDS” (Bristol-Myers Squibb Company, priority 2022, published 2026)
# Experiments:
# Type in all cases: cell-based
# Conditions in all cases: second agent in combination with Compound I, 7 days; for Synergy region (synergy score): Bliss/HSA excess
# [1] = test system: LNCaP cells; test: CTG proliferation assay, in-vitro combination screen, LNCaP; design: key to Synergy excess: experimental response-surface area minus reference-model area (Bliss/HSA); Maximum synergy: scale not given here
# Experimental: (§1) Three prostate cancer cell lines LNCAP, VCAP, and 22RV1 were used in this screen. Briefly, LNCaP cells were cultured in RPMI medium supplemented with 10% FBS, 1% penicillin/streptomycin, 10 mM HEPES, 1 mM sodium pyruvate, and 1.5 g/L sodium bicarbonate. LNCaP cells were seeded at a density of 2000 cells/well on 384 black assay plates printed with our different compound combinations of interest printed on the plates. PC3 cells were cultured in F12K medium supplemented with 10% FBS and 1% penicillin/streptomycin. 22RV1 cells were cultured in RPMI1640 medium supplemented with 10% FBS and 1% penicillin/streptomycin. 22RV1 cells were seeded at a density of 2000 cells/well on 384 black assay plates printed with our different compound combinations of interest printed on the plates. VCaP cells were cultured in DMEM medium supplemented with 10% FBS, 1% penicillin/streptomycin 1 mM sodium pyruvate, 1.5 g/L sodium bicarbonate on high bind treated tissue culture flasks (Corning CellBIND) to increase cell surface attachment. VCaP cells were seeded at a density of 3000 cells/well on high-bind 384 black assay plates printed with our different compound combinations of interest printed on the plates. The combination plates seeded with cells were then incubated for 7 days at 37° C. and 5% CO2. Cell viability assays were then performed on the plates using Promega CellTiter-Glo (CTG) Luminescent Cell Viability Assay kit and following the manufacturer's protocol. 20 μL of CTG reagent was added to each well of the 384 well plate, and plates were then incubated for 45 minutes before measuring the […] using PerkinElmer EnVision Plate Reader.
# (§2) Synergy is calculated by Bliss and HSA excess scores. Bliss and HSA excess scores are computed by subtracting the area under the experimental response surface to the areas under the corresponding reference model surface. A negative HSA excess score indicates antagonism, while a positive HSA excess indicates additivity and synergy is detected when also the Bliss excess score is positive. Replicates are integrated by fitting individual dose response curves. Statistical analysis is performed by first estimating experimental noise and goodness-of-fit values for each individual combination. These values are used to compute Z-scores for the observed effects. Z-scores are integrated across the combination matrix where the deviation from the model is consistent over adjacent doses and a p-value is computed.
# [2] = test system: VCaP cells; test: CTG proliferation assay, in-vitro combination screen, VCaP; design: key to Synergy excess / Additivity score: area between experimental and reference (Bliss/HSA) response surfaces
# Experimental: as §1, with “LNCaP cells were seeded at a density of 2000 cells/well on 384 black assay plates printed with our different compound combinations of interest printed on the plates.” left out, “22RV1 cells were seeded at a density of 2000 cells/well on 384 black assay plates printed with our different compound combinations of interest printed on the plates.” left out, “VCaP cells were seeded at a density of 3000 cells/well on high-bind 384 black assay plates printed with our different compound combinations of interest printed on the plates.” left out
# as §2
# [3] = test system: 22RV1 cells; test: CTG proliferation assay, in-vitro combination screen, 22RV1; design: key to Synergy region (synergy score) / Additivity score / Antagonism score: area between experimental and reference (Bliss/HSA) response surfaces
# Experimental: as §1, with “LNCaP cells were seeded at a density of 2000 cells/well on 384 black assay plates printed with our different compound combinations of interest printed on the plates.” left out, “22RV1 cells were seeded at a density of 2000 cells/well on 384 black assay plates printed with our different compound combinations of interest printed on the plates.” left out, “VCaP cells were seeded at a density of 3000 cells/well on high-bind 384 black assay plates printed with our different compound combinations of interest printed on the plates.” left out
# as §2
Structure (SMILES),Additivity score [1],Antagonism score [1],Maximum synergy [1],Synergy excess [1],Synergy region (synergy score) [1],Additivity score [2],Antagonism score [2],Maximum synergy [2],Synergy excess [2],Synergy region (synergy score) [2],Additivity score [3],Antagonism score [3],Maximum synergy [3],Synergy excess [3],Synergy region (synergy score) [3]
"NC1(C(=O)N[C@@H](CCO)c2ccc(Cl)cc2)CCN(c2nc[nH]c3nccc2-3)CC1 [AZD5363, capivasertib]",16,0,26,9.4,8.1,7.1,0,13,6.2,2,,,,,
C[C@@H](Nc1cc(F)cc(F)c1)c1cc(C(=O)N(C)C)cc2c(=O)cc(N3CCOCC3)oc12 [AZD8186],10,0,12,4.4,1.5,2.1,0,11,2.9,0.39,7.6,0,24,2.4,1.6
"CC(C)NC[C@@H](C(=O)N1CCN(c2ncnc3c2[C@H](C)C[C@H]3O)CC1)c1ccc(Cl)cc1 [GDC-0068, ipatasertib]",13,0,23,7.6,5.6,7.5,0,14,3.8,1.5,7.5,0,23,2.4,2.1
"N#CC[C@H](C1CCCC1)n1cc(-c2ncnc3[nH]ccc23)cn1 [Ruxolitinib, ruxolitinib]",,,,,,5.2,0,,,,,,,,
"CNC(=O)c1cc(Oc2ccc(NC(=O)Nc3ccc(Cl)c(C(F)(F)F)c3)cc2)ccn1 [Sorafenib, sorafenib]",,,,,,,,,,,2.6,0,20,,0.65
"CCN(c1cc(-c2ccc(CN3CCOCC3)cc2)cc(C(=O)NCc2c(C)cc(C)[nH]c2=O)c1C)C1CCOCC1 [Tazemetostat, tazemetostat]",6.1,0,20,5.3,4.1,,,,,,,,,,
